US10633338B2, “Binding Function 3 (BF3) site compounds as therapeutics and methods for their use” (THE UNIVERSITY OF BRITISH COLUMBIA, priority 2014, dated 2020)
Read-outs that look alike come from different tables or passages of the source.

Key:
PSA = test: Prostate Surface Antigen (PSA) assay, PSA excreted into the media; type: cell-based, human; details: same plates as eGFP assay
Description: The evaluation of PSA excreted into the media was performed in parallel to the eGFP assay using the same plates (see above description). After the cells were incubated for 3 days 150 μl of the media was taken from each well, and added to 150 μl of PBS.

androgen receptor (AR) = molecular target: T1, androgen receptor (AR) (Homo sapiens, UniProt P10275, T878A); test: eGFP cellular AR transcription assay; type: cell-based
T1 construct: stably transfected eGFP-expressing LNCaP human prostate cancer cells (LN-ARR2PB-eGFP) containing an androgen responsive probasin-derived promoter; endogenous in cells; host or cells: LNCaP (LN-ARR2PB-eGFP)
T1 sequence (P10275 1-920 T878A): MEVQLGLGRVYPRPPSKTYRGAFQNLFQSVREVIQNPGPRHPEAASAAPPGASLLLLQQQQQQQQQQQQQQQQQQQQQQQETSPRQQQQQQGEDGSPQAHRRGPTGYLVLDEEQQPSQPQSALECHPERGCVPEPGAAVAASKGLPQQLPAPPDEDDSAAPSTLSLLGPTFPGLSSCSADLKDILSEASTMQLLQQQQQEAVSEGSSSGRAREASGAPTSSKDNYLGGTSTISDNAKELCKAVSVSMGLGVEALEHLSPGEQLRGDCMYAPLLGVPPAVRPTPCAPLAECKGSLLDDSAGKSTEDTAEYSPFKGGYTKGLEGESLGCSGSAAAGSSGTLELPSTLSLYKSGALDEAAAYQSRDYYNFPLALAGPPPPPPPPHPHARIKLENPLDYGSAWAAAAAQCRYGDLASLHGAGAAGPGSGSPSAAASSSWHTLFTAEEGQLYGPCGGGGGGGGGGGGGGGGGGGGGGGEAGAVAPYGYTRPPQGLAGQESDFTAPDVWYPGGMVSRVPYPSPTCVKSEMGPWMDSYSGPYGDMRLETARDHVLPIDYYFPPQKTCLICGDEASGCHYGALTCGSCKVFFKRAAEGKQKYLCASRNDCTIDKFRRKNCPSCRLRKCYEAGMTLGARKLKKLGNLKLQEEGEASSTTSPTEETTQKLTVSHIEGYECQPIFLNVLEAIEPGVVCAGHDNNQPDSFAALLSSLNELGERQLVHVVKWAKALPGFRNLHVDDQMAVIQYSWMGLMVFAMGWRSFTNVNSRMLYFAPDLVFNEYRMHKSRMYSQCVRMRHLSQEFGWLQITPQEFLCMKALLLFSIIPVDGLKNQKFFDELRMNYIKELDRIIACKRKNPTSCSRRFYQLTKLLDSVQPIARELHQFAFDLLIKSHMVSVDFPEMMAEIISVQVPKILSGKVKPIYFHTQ
Method in brief: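 AR transcriptional activity is read as eGFP expression from a probasin-derived androgen-responsive promoter. Compound titrated 0-100 μM in the presence of 0.1 nM R1881; 35,000 cells/well.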

[1] = PSA excreted into media, 3 days incubation
[2] = LN-ARR2PBeGFP LNCaP cells, 0.1 nM R1881, 3 days incubation
[3] = Homo sapiens, 72 h, PSA excreted into media, 3 days incubation, read-out: PSA IC50
[4] = LN-ARR2PBeGFP LNCaP cells, 0.1 nM R1881, 3 days incubation, read-out: eGFP IC50
[5] = Homo sapiens, 72 h, media after 3 days, read-out: IC50 (PSA)
[6] = LN-ARR2PB-eGFP LNCaP cells, 0.1 nM R1881, 3 days, 0-100 μM compound, read-out: IC50 (eGFP)

SMILES | IC50 (PSA; [3]) [nM] | IC50 (androgen receptor (AR); [4]) [nM] | other results
Cc1cccc2c(-c3ccc4cnccc4c3)c[nH]c12 [Compound 13765] |  |  | PSA IC50 (PSA; [1]): Inactive; IC50 (PSA) (PSA; media after 3 days): IC50 (PSA) = inactive; IC50 (eGFP) (androgen receptor (AR); LN-ARR2PB-eGFP LNCaP cells, 0.1 nM R1881, 3 days, 0-100 μM compound): IC50 (eGFP) = inactive; eGFP IC50 (androgen receptor (AR); [2]): Inactive
Cc1cc2ccccc2nc1-c1c[nH]c2c(C)cccc12 [Compound 13596] |  |  | PSA IC50 (PSA; [1]): Inactive; eGFP IC50 (androgen receptor (AR); [2]): Inactive
CC1(C)c2ccc(Br)cc2NC1c1c[nH]c2c(OCc3ccccc3)cccc12 (stereo not shown) [Compound 13543] | 3190 | 3700 | 
Cc1cc(-c2c[nH]c3c(C)c(F)ccc23)nc2ccccc12 [Compound 13659] |  |  | PSA IC50 (PSA; [1]): Inactive; eGFP IC50 (androgen receptor (AR); [2]): Inactive
Cc1cccc2c(-c3nc4ccccc4cc3O)c[nH]c12 [Compound 13661] |  |  | PSA IC50 (PSA; [1]): Inactive; eGFP IC50 (androgen receptor (AR); [2]): Inactive
CC1(C)C(c2c[nH]c3ncccc23)=Nc2ccccc21 [13 537] |  |  | IC50 (PSA; [5]): 810 nM; IC50 (androgen receptor (AR); [6]): 700 nM
CC1(C)c2ccccc2NC1c1c[nH]c2c(CO)cccc12 (stereo not shown) [Compound 13558] | 2100 | 1600 | 
Cc1c(F)ccc2c(-c3ccc4cccc(F)c4n3)c[nH]c12 [Compound 13635] |  |  | PSA IC50 (PSA; [1]): Inactive; eGFP IC50 (androgen receptor (AR); [2]): Inactive
CCc1cccc2c(-c3ccc4ccccc4n3)c[nH]c12 [Compound 13567] | 230 | 200 | 
Cc1cc(Cl)c2[nH]ccc2c1 [Compound 13724] |  |  | PSA IC50 (PSA; [1]): Inactive; eGFP IC50 (androgen receptor (AR); [2]): Inactive
c1ccc2c(c1)NC(c1c[nH]c3ccccc13)C21CCCCC1 (stereo not shown) [13 534] |  |  | IC50 (PSA; [5]): 1250 nM; IC50 (androgen receptor (AR); [6]): 800 nM
c1ccc2c(c1)C[C@H](c1c[nH]c3ccccc13)N2 [Compound 13163-B] | 240 | 480 | 
O=[N+]([O-])c1cccc2nc(-c3c[nH]c4c(F)cc(F)cc34)ccc12 [Compound 13670] |  |  | PSA IC50 (PSA; [1]): Inactive; eGFP IC50 (androgen receptor (AR); [2]): Inactive
CN1c2ccccc2C[C@H]1c1c[nH]c2ccccc12 [Compound 13164-A] | 670 | 770 | 
Brc1cccc2c(-c3ccc4ccccc4n3)c[nH]c12 [Compound 13582] | 41 | 52 | 
c1ccc2cc(-c3c[nH]c4cnccc34)ccc2c1 [13 675] |  |  | IC50 (PSA; media after 3 days, read-out: IC50 (PSA)): 468 nM; IC50 (androgen receptor (AR); [6]): 450 nM

More lines, main results first:

IC50 (PSA; [3]) [nM] | IC50 (androgen receptor (AR); [4]) [nM] | SMILES | other results
270 | 300 | Cc1cccc2c(-c3ccc4ocnc4c3)c[nH]c12 [Compound 13759] | 
210 | 270 | Cc1c(F)ccc2c(-c3ccc4cccc(Cl)c4n3)c[nH]c12 [Compound 13665] | 
140 | 210 | O=[N+]([O-])c1cccc2c(-c3ccc4ccccc4c3)c[nH]c12 [Compound 13702] | 
610 | 1660 | Cc1cccc2c(-c3cccnc3)c[nH]c12 [Compound 13655] | 
255 | 304 | CNC(=O)c1cccc2nc(-c3c[nH]c4c(C#N)cc(F)cc34)ccc12 [Compound 13731] | 
610 | 800 | c1ccc2ncc(-c3c[nH]c4ccccc34)cc2c1 [Compound 13628] | 
290 | 290 | Cc1cc(F)cc2c(-c3ccc4cccc(F)c4n3)c[nH]c12 [Compound 13708] | 
390 | 380 | FC(F)(F)c1ccc(-c2c[nH]c3ccccc23)cc1 [Compound 13743] | 
169 | 350 | Cc1cc(F)cc2c(-c3ccc4ccc(F)cc4n3)n[nH]c12 [Compound 13704] | 
597 | 1120 | Fc1ccc2nc(-c3c[nH]c4cc(F)c(F)cc34)ccc2c1 [Compound 13614] | 
430 | 600 | Fc1ccc2ccc(-c3c[nH]c4cc(F)c(F)cc34)nc2c1 [Compound 13630] | 
680 | 620 | COC(=O)c1cccc2c(-c3ccc(Br)cc3)c[nH]c12 [Compound 13736] | 
